According to US4000160A, “Pyrrolyl oxyphenyl ketones” (Sterling Drug Inc., priority 1975, dated 1976):
≈ marks a conversion by molar mass, not a printed value. Read-outs that look alike come from different tables or passages of the source.

Columns and labels:
Format in all cases: cell-based
Ceratocystis ulmi [1] = assay: agar growth test, percent inhibition of Ceratocystis ulmi; details: 120 h, read-out: % Inhibition, Agar Growth
Method: (§1) The test procedures, the agar growth and shake culture tests, used to determine this latter activity are described as follows: In the agar growth test a solution of 2 mg. of the test compound in 2 ml. of acetone was prepared and 0.2 ml. of this solution was added via sterile glass pipette to 20 ml. of molten (42° C.) sterile potato dextrose agar. Mixing was accomplished by repeated inversion of the tube. The mixture was poured into a sterile Petri dish, allowed to solidify at room temperature, and then was inoculated by placing in the center of the agar-chemical mixture a section (3 mm. diameter) of agar permeated with the mycelium of Ceratocystis ulmi. The inoculated dish was incubated at 25° C. for 5 days when the diameter of growth was measured and compared to the growth which had occurred in a control culture. The percent inhibition was calculated as: [formula] In the shake culture test, a 0.2 ml. aliquot of an acetone solution of the test compound (2 mg. in 2 ml.) was added to 20 ml. of sterile potato dextrose broth in a sterile 250 ml. Erlenmeyer flask. The flask was stoppered with a plug of sterile cotton, and the mixture was shaken for one hour on a New Brunswick "Gyrotatary" shake table. The mixture was inoculated by addition of a section (3 mm. diameter) of agar permeated with the mycelium of Ceratocystis ulmi and returned to the shake table where shaking was continued for five days at room temperature. The optical density of the mixture was measured, using an uninoculated sample of the broth as a blank, and compared with a control sample. The percent inhibition was calculated as: […]
(§2) Data obtained for the compounds of the invention in in vitro tests against fungal organism, Ceratocystis ulmi, in the agar growth and shake culture tests in comparison with the known antibiotic, pyoluteorin, at a standard dilution of 10 parts per million are given in terms of percent inhibition in the table below. The compounds are identified by reference to the example number above where their preparation is described.

Ceratocystis ulmi [2] = assay: shake culture test, percent inhibition of Ceratocystis ulmi; details: 120 h, read-out: % Inhibition, Shake Culture
Method: as §1, §2

Escherichia coli 198 = assay: in vitro antibacterial test (modified Autotiter method), minimum inhibitory concentration
Method: (§3) The antibacterial activity was determined using a modification of the Autotiter method described by Goss et al., Applied Microbiology, 16 (No. 9), 1414-1416 (1968) in which a 1000 mcg./ml. solution of the test compound is prepared. To the first cup of the Autotray is added 0.1 ml. of the test solution. Activation of the Autotiter initiates a sequence of operations by which 0.05 ml. of the test compound solution is withdrawn from this cup by a Microtiter transfer loop and diluted in 0.05 ml. of sterile semisynthetic medium (glucose). After this operation, 0.05 ml. of inoculated semisynthetic medium is added automatically to each cup. The overall operation results in final drug concentrations ranging from 500 to 0.06 mcg./ml. in twofold decrements. The Autotray is incubated for 18-20 hours at 37° C., at which time the trays are examined visually for growth as evidenced by turbidity, and the concentration of the last sample in the series showing no growth (or no turbidity) is recorded as the minimal inhibitory concentration (MIC). The compounds of formula I were thus found to be antibacterially effective against Staphylococcus aureus, Pseudomonas aeruginosa, Escherichia coli, and Proteus vulgaris at concentrations from 2 to 500 mcg./ml.
(§4) Data, expressed in terms of the minimum inhibitory concentration in mcg./ml., obtained in in vitro tests of the compounds of the invention in comparison with pyoluteorin against the bacterial organisms Staphylococcus aureus 209, Escherichia coli 198, Klebsiella pneumoniae 39645, Proteus vulgaris 9920, and Pseudomonas aeruginosa 211 (identified below as organisms A, B, C, D and E, respectively) are given in the table below.

[3] = test system: Klebsiella pneumoniae 39645; assay: as above; details: organism C
Method: as §3, §4

Proteus vulgaris 9920 = assay: as above
Method: as §3, §4

[4] = test system: Pseudomonas aeruginosa 211; assay: as above
Method: as §3, §4

[5] = test system: Staphylococcus aureus 209; assay: as above
Method: as §3, §4

[6] = 10 parts per million, agar, 25° C., 5 days
[7] = 10 parts per million, broth, room temperature, five days
[8] = organism B, Escherichia coli 198, in vitro, read-out: minimum inhibitory concentration (MIC)
[9] = organism D, Proteus vulgaris 9920, in vitro, read-out: minimum inhibitory concentration (MIC)
[10] = organism E, Pseudomonas aeruginosa 211, in vitro, read-out: minimum inhibitory concentration (MIC)
[11] = organism A, Staphylococcus aureus 209, in vitro, read-out: minimum inhibitory concentration (MIC)

SMILES	MIC (Escherichia coli 198; [8]) [µg/mL]	MIC [3] [µg/mL]	MIC (Proteus vulgaris 9920; [9]) [µg/mL]	MIC [4, 10] [µg/mL]	MIC [5, 11] [µg/mL]	inhibition of growth at 10 µg/mL (Ceratocystis ulmi [1]; [6]) [%]	inhibition of growth at 10 µg/mL (Ceratocystis ulmi [2]; [7]) [%]	inhibition of growth at 10 µg/mL (Ceratocystis ulmi [1]) [%]	inhibition of growth at 10 µg/mL (Ceratocystis ulmi [2]) [%]	MIC (Escherichia coli 198; Escherichia coli, 198, read-out: minimum inhibitory concentration (MIC)) [µg/mL]	MIC (Proteus vulgaris 9920; Proteus vulgaris, 9920, read-out: minimum inhibitory concentration (MIC)) [µg/mL]	MIC ([4]; Pseudomonas aeruginosa, 211, read-out: minimum inhibitory concentration (MIC)) [µg/mL]	MIC ([5]; Staphylococcus aureus, 209, read-out: minimum inhibitory concentration (MIC)) [µg/mL]
COc1ccc(OC)c(C(=O)c2cc(Cl)c(Cl)[nH]2)c1 [Example 4, 4,5-dichloropyrrol-2-yl 2,5-dimethoxyphenyl ketone]	> 125	> 125	> 125	> 125	> 125	48	72						
COc1ccc(C(=O)c2cc(Cl)c(Cl)[nH]2)c(OC)c1 [Example 1, 4,5-dichloropyrrol-2-yl 2,4-dimethoxyphenyl ketone]	> 125	> 125	> 125	> 125	62.5 (≈ 208 µM)	28	30						
COc1ccc(OC)c(C(=O)c2cc(Br)c(Br)[nH]2)c1 [Example 2, 4,5-dibromopyrrol-2-yl 2,5-dimethoxyphenyl ketone]	> 125	> 125	> 125	> 125	31.3 (≈ 80.5 µM)	32	38						
O=C(c1cc(Br)c(Br)[nH]1)c1cc(O)ccc1O [Example 5, 4,5-dibromopyrrol-2-yl 2,5-dihydroxyphenyl ketone]	125 (≈ 346 µM)	> 125	62.5 (≈ 173 µM)	125 (≈ 346 µM)	15.6 (≈ 43.2 µM)	28	83						
O=C(c1cc(Cl)c(Cl)[nH]1)c1c(O)cccc1O [Pyoluteorin, 4,5-dichloropyrrol-2-yl 2,6-dihydroxyphenyl ketone, reference compound]								4	38	6.2 (≈ 22.8 µM)	125 (≈ 459 µM)	125 (≈ 459 µM)	3.1 (≈ 11.4 µM)
COc1ccc(C(=O)c2cc(Cl)c(Cl)[nH]2)cc1OC [Example 3, 4,5-dichloropyrrol-2-yl 3,4-dimethoxyphenyl ketone]	> 125	> 125	> 125	> 125	> 125	25	75						

Continued, in another order:

MIC (Escherichia coli 198; [8]) [µg/mL]	MIC [3] [µg/mL]	MIC (Proteus vulgaris 9920; [9]) [µg/mL]	MIC [4, 10] [µg/mL]	MIC [5, 11] [µg/mL]	SMILES	inhibition of growth at 10 µg/mL (Ceratocystis ulmi [1]; [6]) [%]	inhibition of growth at 10 µg/mL (Ceratocystis ulmi [2]; [7]) [%]	inhibition of growth at 10 µg/mL (Ceratocystis ulmi [1]) [%]	inhibition of growth at 10 µg/mL (Ceratocystis ulmi [2]) [%]	MIC (Escherichia coli 198; Escherichia coli, 198, read-out: minimum inhibitory concentration (MIC)) [µg/mL]	MIC (Proteus vulgaris 9920; Proteus vulgaris, 9920, read-out: minimum inhibitory concentration (MIC)) [µg/mL]	MIC ([4]; Pseudomonas aeruginosa, 211, read-out: minimum inhibitory concentration (MIC)) [µg/mL]	MIC ([5]; Staphylococcus aureus, 209, read-out: minimum inhibitory concentration (MIC)) [µg/mL]
> 125	> 125	> 125	> 125	> 125	COc1ccc(C(=O)c2cc(Br)c(Br)[nH]2)cc1 [Example 6, 4,5-dibromopyrrol-2-yl 4-methoxyphenyl ketone]	11	66						
125 (≈ 459 µM)	125 (≈ 459 µM)	62.5 (≈ 230 µM)	125 (≈ 459 µM)	0.98 (≈ 3.6 µM)	O=C(c1cc(Cl)c(Cl)[nH]1)c1cc(O)ccc1O [Example 10, 4,5-dichloropyrrol-2-yl 2,5-dihydroxyphenyl ketone]	21	64						
250 (≈ 696 µM)	> 250	125 (≈ 348 µM)	> 125	250 (≈ 696 µM)	COc1cccc(C(=O)c2cc(Br)c(Br)[nH]2)c1 [Example 8, 4,5-dibromopyrrol-2-yl 3-methoxyphenyl ketone]	28	75						
15.6 (≈ 57.8 µM)	> 62.5	62.5 (≈ 231 µM)	> 250	> 31.6	COc1ccc(C(=O)c2cc(Cl)c(Cl)[nH]2)cc1 [Example 7, 4,5-dichloropyrrol-2-yl 4-methoxyphenyl ketone]	32	61						
31.3 (≈ 115 µM)	> 125	> 125	> 125	3.9 (≈ 14.3 µM)	O=C(c1cc(Cl)c(Cl)[nH]1)c1ccc(O)cc1O [Example 9, 4,5-dichloropyrrol-2-yl 2,4-dihydroxyphenyl ketone]	55	72						
